No end group written: not given here.

We go through one sequence from paper PMC6940896, “Development of a Highly Efficient Hybrid Peptide That Increases Immunomodulatory Activity Via the TLR4-Mediated Nuclear Factor-κB Signaling Pathway” (International Journal of Molecular Sciences, 2019).

One experiment addresses T1, recombinant TLR4/MD2 (Homo sapiens, UniProt O00206+Q9Y6Y9).
T1 construct: purchased R&D Systems
Nature of the experiment: Surface plasmon resonance binding to immobilized TLR4/MD2. The note with it: SPR, ProteOn XPR36, GLH chip, 25 °C, PBS 0.1% Tween 20 with 2% DMSO, 1:1 model, 0-10 μM peptide. How it is done:
Surface plasmon resonance (SPR) experiments were performed using a ProteOn^TM XPR36 instrument (Bio-Rad, Hercules, CA, USA) with a ProteOn^TM GLH sensor chip (Bio-Rad) at 25 °C. PBS supplemented with 0.1% Tween 20 (containing 2% dimethyl sulfoxide) was used as a running buffer and was continuously passed into the reaction chamber at 30 μL/min. A SPR sensing chip with recombinant TLR4/MD2 (R&D Systems, Minneapolis, MN, USA) that was immobilized by amino coupling was used to capture the peptide, according to the manufacturer’s protocol. […] The running buffer was injected into the empty channel as a reference. Sensor chip regeneration and desorption were achieved by injecting 10 mM Gly-HCl buffer (pH 2.5) before the next round of analyses. The experimental data were analyzed by ProteOn Manager^TM software (version 2.0). Binding curves were processed for the initial injection alignment and baseline, and a reference-subtracted sensorgram was globally fitted to the curves to describe a homogeneous 1:1 model. Data from the protein surfaces were grouped together to fit the kinetic rate constants (Ka and Kd). The equilibrium dissociation constant (KD) for the peptide-TLR4/MD2 interaction was calculated using the following equation:(5) KD=Kd/Ka
Background: Surface plasmon resonance follows binding to a sensor surface in real time, without labels.

In a further experiment the test system is TLR4-NF-κB pathway. As to the kind of experiment: Western blot of TLR4-NF-κB pathway proteins in CTX-treated mice. It counts as in vivo, mouse. The conditions noted are these: CTX-treated mice with or without LTAa, n = 3. How it is done:
Sigma-Aldrich, St. Louis, MO, USA) group, a LL-37 group, a Tα1 group, and a LTAa group. For the first 3 days, CTX (80 mg/kg mouse weight) was administered intraperitoneally once daily to establish the immunosuppressed animal model. From days 4 to 10 (7 days), peptides (10 mg/kg mouse weight) were administered intraperitoneally each day. The CTX group was only treated with CTX, and the control group was given sterile saline. The dose volume was 200 μL. Twenty-four hours after the last dose, the mice were killed and their tissues and blood collected for analysis. The body weight index was calculated in the following way:(2) Index (%)=final body weight-[…] body weight/initial body weight ×100% Whole protein in the serum was collected using a whole-protein extraction kit (Nanjing KeyGEN Biotech, Nanjing, China) according to the manufacturer's instructions. The protein concentration was measured using a bicinchoninic acid kit (Nanjing KeyGEN Biotech). The different proteins were separated by sodium dodecyl sulfate polyacrylamide gel electrophoresis and transferred onto polyvinylidene difluoride membranes (Bio-Rad). […]
(A western blot detects proteins with antibodies after separation by electrophoresis.)

T1 sequence (O00206 24-631 limits assumed, species assumed): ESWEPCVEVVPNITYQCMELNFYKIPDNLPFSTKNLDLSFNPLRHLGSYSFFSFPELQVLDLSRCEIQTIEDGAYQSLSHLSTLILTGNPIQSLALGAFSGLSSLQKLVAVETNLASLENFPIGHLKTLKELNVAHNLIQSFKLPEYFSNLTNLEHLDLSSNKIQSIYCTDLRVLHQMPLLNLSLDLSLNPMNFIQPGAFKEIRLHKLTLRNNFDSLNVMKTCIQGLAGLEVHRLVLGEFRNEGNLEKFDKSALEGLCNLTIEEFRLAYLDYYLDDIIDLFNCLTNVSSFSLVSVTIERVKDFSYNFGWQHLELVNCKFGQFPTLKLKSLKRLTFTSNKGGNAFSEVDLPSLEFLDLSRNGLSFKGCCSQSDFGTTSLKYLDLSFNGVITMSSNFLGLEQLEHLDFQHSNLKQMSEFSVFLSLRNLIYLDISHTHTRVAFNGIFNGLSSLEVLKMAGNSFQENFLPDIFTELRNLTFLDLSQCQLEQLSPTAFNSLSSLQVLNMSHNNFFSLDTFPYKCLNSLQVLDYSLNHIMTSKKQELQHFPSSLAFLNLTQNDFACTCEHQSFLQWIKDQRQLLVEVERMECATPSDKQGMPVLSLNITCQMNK
T1 sequence (Q9Y6Y9 19-160, species assumed): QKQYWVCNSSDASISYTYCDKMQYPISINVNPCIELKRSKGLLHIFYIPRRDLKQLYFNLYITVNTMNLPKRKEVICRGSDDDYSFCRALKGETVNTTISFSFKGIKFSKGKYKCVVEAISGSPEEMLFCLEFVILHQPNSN

Turning to IGKEFKRIVQRIKDFLRNLVPRTEKEKKEVVE [LTAa], on recombinant TLR4/MD2, the Ka for binding to TLR4/MD2 was found to be 7.38e+09 M⁻¹ s⁻¹ and the Kd (rate constant) for binding to TLR4/MD2 amounted to 0.362 s⁻¹. In addition, the “TLR4, MyD88 and TRAF6 expression” value in the experiment with TLR4-NF-κB pathway was “increasing”.
